# Experiments:
# [1] = Clinical tolerability / adverse effects; settings: view of the Applicant
# depressed patients = settings: 10-50 mg intravenously, with a monoamino-oxydase inhibitor; cited from earlier work
# [2] = Acute toxicity, intraperitoneal; format: in vivo, I.C.R. Swiss albino mice; settings: mouse, in vivo, ip; mice of both sexes, intraperitoneal
# Experimental: (§1) The studies of acute toxicity have been made with I.C.R. Swiss albino mice of both sexes. We express the toxicity date with the parameters of lethal dose 16 (LD16), lethal dose 50 (LD50) and lethal dose 84 (LD84), in mg/kg. of weight. The substance was administered intraperitoneally.
# I.C.R. Swiss albino mice = test: Acute toxicity, intraperitoneal; format: in vivo
# Experimental: as §1
# female mice = test: Irwin's schema (behavioural symptomatology); format: in vivo; settings: for symptomatology of our product observed with comparator: L-glutamic acid and L-5 hydroxytryptophan: separate administration at equimolecular doses
# cerebral serotonin [3] = settings: statement without data; cited from earlier work
# [4] = clinical use, as described; cited from earlier work
# MAO = settings: non-hydrazinic MAO inhibitor; cited from earlier work
# serotonin in the brain = settings: dogs; cited from earlier work
# [5] = cited from earlier work
# depressive patient = settings: total dose 150 mg, cited from earlier work; for response of depressive symptoms: amitryptiline with anticonvulsivant therapy for two months, 5-hydroxytryptophan 5 days, L-DOPA previously
# [6] = system: antidepressive effects of the MAO inhibitors; settings: in vivo; cited from earlier work
# [7] = system: uptake I (presynaptic membrane); settings: presynaptic membrane level; cited from earlier work
# [8] = system: patients in depressive phase; settings: 5 weeks, tablets 20, 50 and 100 mg three times a day; cited from earlier work
# [9] = system: patients affected by Parkinson's disease; settings: human, in vivo; cited from earlier work
# [10] = system: serotonin in the brains of rats; settings: administered at the same time as monoamino-oxydase inhibitors; cited from earlier work
# [11] = Analgesic activity, chemical analgesia; format: in vivo
# [12] = Analgesic activity, thermal analgesia (hot plate at 55° C.); format: in vivo
# [13] = system: responses to serotonin (rat's isolated uterus); test: Antiserotoninic activity, rat's isolated uterus; settings: 40 mcg/ml
# cerebral serotonin [14] = test: Cerebral serotonin level (inferred from symptomatology of the animals injected); format: in vivo; settings: compared with sole administration of L-5-hydroxytryptophan
# [15] = mice of both sexes, intraperitoneal
compound,measurement,setting,value
5-hydroxytryptophan glutamate [the product obtained by this method],tolerability,[1],great tolerability
NC(Cc1c[nH]c2ccc(O)cc12)C(=O)O (racemic) [DL-5-OH-tryptophan],improvement of depression,depressed patients,improvement of depression in one day
N[C@@H]1C[C@H]1c1ccccc1 (relative stereo) [Tranilcypromine],LD50,[2],11.3 mg/kg
same,LD16,I.C.R. Swiss albino mice; [15],7.3 mg/kg
same,LD84,I.C.R. Swiss albino mice; [15],18 mg/kg
same,symptomatology of our product observed with comparator,female mice,Neither is this symptomatology observed
same,cerebral serotonin raising action compared with our product,cerebral serotonin [3],very inferior to our product
same,adverse effects and secondary reactions,[4],great amount of adverse effects and secondary reactions
same,inhibition of MAO,MAO,powerful inhibitor of non-hydrazinic MAO
N[C@@H](Cc1c[nH]c2ccc(O)cc12)C(=O)O [5-hydroxytryptophan],raising of the level of serotonin in the brain,serotonin in the brain,10 times
same,tissue penetration,[5]; animals,rapidly penetrates most tissues
same,conversion into serotonin,[5]; if there is decarboxylase,converted into serotonin
same,time to disappearance of the depressive symptoms after treatment,depressive patient; 5 days,two
same,response of depressive symptoms,depressive patient,rapid improvement in the state of mind
same,potentiation of the antidepressive effects of the MAO inhibitors,[6],potentiation of the antidepressive effects of the MAO inhibitors has been observed
CN(C)CCCN1c2ccccc2CCc2ccccc21 [Imipramine],LD16,I.C.R. Swiss albino mice; [15],33.3 mg/kg
same,LD84,I.C.R. Swiss albino mice; [15],80 mg/kg
same,incorporation blockage (uptake I),[7],produces an incorporation blockage (uptake I) on the presynaptic membrane level
N[C@@H](Cc1c[nH]c2ccc(O)cc12)C(=O)O [L-5-hydroxytryptophan],symptomatology of our product observed with comparator,female mice,not observed
same,remission of depressive symptoms,[8],symptoms remitting so rapidly that even the patients themselves were impressed
same,anti-tremor effect,[9],visible anti-tremor effect
same,antidepressive action in Parkinson's disease patients,[9],"intense antidepressive action with improvement of the affective field, of the psychomotor impulse and activation of personal initiative"
N[C@@H](Cc1ccc(O)c(O)c1)C(=O)O [L-DOPA],response of depressive symptoms,depressive patient,without obtaining any result
N[C@@H](CCC(=O)O)C(=O)O [L-glutamic acid],symptomatology of our product observed with comparator,female mice,not observed
CN(C)CCC=C1c2ccccc2CCc2ccccc21 [amitryptiline],response of depressive symptoms,depressive patient,did not produce any positive response
N[C@@H](Cc1c[nH]c2ccccc12)C(=O)O [tryptophan],increase in brain serotonin with monoamino-oxydase inhibitors,[10],the increase becomes higher
same,potentiation of the antidepressive effects of the MAO inhibitors,[6],potentiation of the antidepressive effects of the MAO inhibitors has been observed
L-5 hydroxytryptophan monohydrate L-glutamate [Our product],times less toxic than imipramine,I.C.R. Swiss albino mice; from the foregoing table,6 times
same,times less toxic than tranilcypromine,I.C.R. Swiss albino mice; from the foregoing table,300 times
same,LD16,I.C.R. Swiss albino mice; [15],260.5 mg/kg
same,LD50,I.C.R. Swiss albino mice; [15],323 mg/kg
same,LD84,I.C.R. Swiss albino mice; [15],401.4 mg/kg
same,duration of symptoms,female mice; 10 mg/kg orally,≥ 120 min
same,onset of symptoms after administration,female mice; 10 mg/kg orally,15 min
same,pharmacological activity compared with each ingredient separately,female mice; equimolecular doses,superior to that of each ingredient separately
same,symptoms (Irwin's schema),"female mice; our product 10 mg/kg orally, female mice 28±2 g","increase in the state of alertness, a reaction to cleanliness and an increase in spontaneous activity, in addition to restlessness and irritability"
same,analgesic effect compared with dextropropoxyphene,"[11]; 10 mg/kg oral vs dextropropoxyphene 50 mg/kg intraperitoneal, technique (chemical or thermal) not specified",same analgesic effect as dextropropoxyphene
same,"analgesic action, chemical analgesia",[11]; in vivo,significant analgesic action
same,"analgesic action, hot plate",[12],significant analgesic action
same,inhibition of the responses to serotonin,[13],36%
same,raising of cerebral serotonin levels,cerebral serotonin [14],"raises the levels of cerebral serotonin, in a greater way than the sole administration of L-5-hydroxytryptophan"
same,adverse effects and secondary reactions,[4],No interesting secondary reactions have yet been described

# Reference: patent US4029807A (priority 1975, dated 1977)
